Patent publication US20050124494A1, “Compositions comprising a phosphonic compound, and acids as methods for plant growth and regulatory effects” (priority 2003, published 2005)

Tested on: Cotton
Assay: Defoliation of cotton by ethephon with and without muratic acid, field trial Bells TN October 2003
Type: in vivo
Details: for Cotton LEAF DEFOLIATION 3 DA-A: rating date Oct. 13, 2003, 3 days after application; for Cotton LEAF DEFOLIATION 6 DA-A: rating date Oct. 16, 2003, 6 days after application
Excerpt: A preferred mixture would be […] 10%-20% and Phosphoric Acid 1%-40%. This formulation would then be mixed with water as a carrier and applied to the foliage of the target plant at a rate of 3 gallons/Acre to 30 gallons/Acre.

[1] = ethephon 16 FL OZ/A (muratic acid 4 % V/V where combined)
[2] = ethephon 32 FL OZ/A (muratic acid 4 % V/V where combined)

SMILES	Cotton LEAF DEFOLIATION 3 DA-A [1]	Cotton LEAF DEFOLIATION 6 DA-A [1]	Cotton LEAF DEFOLIATION 3 DA-A [2]	Cotton LEAF DEFOLIATION 6 DA-A [2]	Effect of added acid on efficacy of ethephon and speed of the effect on cotton defoliation (summary in words of Table 1)
O=P(O)(O)CCCl [ETHEPHON, (2-chloroethyl)phosphonic acid]	10.8%	19.6%	16.7%	16.7%	
Cl [Muratic Acid]					increased the efficacy of ethephon and the speed of the effect
